# Assay results: patent US20120197004A1, “NOVEL ANTI-MICROBIAL PEPTIDOMIMETIC COMPOUNDS AND METHODS TO CALCULATE ANTI-MICROBIAL ACTIVITY” (priority 2006, published 2012)
# *1 amine or outer side, *2 acyl side, *3 side chain or, on linkers, in order; H or OH if unused. Where a SMILES comes first, the peptide text is derived from it. [ ]: non-standard residue; d: D form. ξ: configuration not given here. Oic = O=C(O)[C@@H]1C[C@@H]2CCCC[C@@H]2N1; Ethylenediamine = C(CN[*:2])N[*:1]; Tic = O=C(O)[C@@H]1Cc2ccccc2CN1; ξTic = O=C(O)C1Cc2ccccc2CN1; ξOic = O=C(O)C1CC2CCCCC2N1
# What was measured:
# in vitro [1] = conditions: rat, microsomes, pH 7.4
# [2] = tested on: Bacillus subtillis (ATCC 43223); conditions: for MIC Bacillus Subtillis: ATCC 43223
# [3] = tested on: Staphylococcus aureus Methicillin/Gentamicin/Tetracycline Resistant (ATCC 33592); conditions: for MIC Staphylococcus aureus ME/GM/TC resistant: Minimal Inhibitory Concentration, tested at 100-0.1 in 1% DMSO; for Minimum Inhibitory Concentration Staphylococcus aureus ME/GM/TC resistant: in vitro MIC, tested at 100, 30, 10, 3, 1, 0.3 and 0.1 μM in 1% DMSO
# in vitro [4] = conditions: human, microsomes, pH 7.4
# [5] = tested on: Mycobacterium ranae (ATCC 110); conditions: for MIC Mycobacterium ranae / Minimum Inhibitory Concentration Mycobacterium ranae: ATCC 110
# in vitro [6] = conditions: dog, microsomes, pH 7.4
# [7] = tested on: Salmonella typhimurium (ATCC 13311); conditions: for MIC Salmonella typhimurium: ATCC 13311
# in vitro [8] = conditions: mouse, microsomes, pH 7.4
# mouse cutaneous injury = assay: Mouse skin wound healing model; assay type: in vivo, CD-1 derived male mice; conditions: topical once daily for 10 days; test substances 100 μg/mouse, CGS-21680 10 μg/mouse
# Method: In-vivo assays: Selected compounds were evaluated in an in-vivo mouse skin wound healing model by MDS Pharma Services using the following protocol. Groups of CD-1 derived male mice (n=5) weighting 24±2 g were used. Under hexobarbitol (90 mg/kg, IP) anesthesia, the shoulder and back region of each animal was shaved. A sharp punch (ID 12 mm) was applied to remove the skin including panniculus carnosus and adherent tissues. […] The percent closure of the wound (%) was calculated, and wound half-closure time (CT50) was analyzed by linear regression using Graph-Prism (Graph Software USA). One-way ANOVA followed by Dunnett's test was applied for comparison between the treated and its corresponding vehicle groups at each measurement time point. Differences are considered statistically significant at P<0.05.^41
# in vitro [9] = conditions: monkey, microsomes, pH 7.4
# [10] = Metabolic stability, human liver microsomes
# [11] = Metabolic stability, dog liver microsomes; conditions: dog, microsomes, pH 7.4
# [12] = Metabolic stability, rat liver microsomes; conditions: rat, microsomes, pH 7.4
# [13] = Metabolic stability, mouse liver microsomes; conditions: mouse, microsomes, pH 7.4
# [14] = Metabolic stability, monkey liver microsomes; conditions: monkey, microsomes, pH 7.4
SMILES,"remaining at 1 h, 1 μM (in vitro [1]) [%]",MIC Bacillus Subtillis [2] [µM],% hemolysis 100/25 μM (first value) (red blood cells) [%/],% hemolysis 100/25 μM (second value) (red blood cells) [%],MIC Staphylococcus aureus ME/GM/TC resistant [3] [µM],Minimum Inhibitory Concentration Staphylococcus aureus ME/GM/TC resistant [3] [µM],"remaining at 0.25 h, 1 μM (in vitro [4]) [%]",MIC Mycobacterium ranae [5] [µM],Minimum Inhibitory Concentration Mycobacterium ranae [5] [µM],"remaining at 0.5 h, 1 μM (in vitro [6]) [%]","remaining at 1 h, 1 μM (in vitro [6]) [%]",MIC Salmonella typhimurium [7] [µM],"remaining at 0.25 h, 1 μM (in vitro [8]) [%]","remaining at 0.5 h, 1 μM (in vitro [8]) [%]","remaining at 1 h, 1 μM (in vitro [8]) [%]","remaining at 0.25 h, 1 μM (in vitro [9]) [%]","remaining at 0.5 h, 1 μM (in vitro [9]) [%]","remaining at 1 h, 1 μM (in vitro [9]) [%]","remaining at 0.25 h, 1 μM (in vitro [1]) [%]","remaining at 0.5 h, 1 μM (in vitro [1]) [%]",other results
"CC(=O)NCC(=O)N[C@@H](Cc1ccccc1)C(=O)N[C@@H](Cc1ccccc1)C(=O)N1C(C(=O)NCC(=O)N[C@@H](CCCCN)C(=O)N[C@@H](Cc2ccccc2)C(=O)N2C(C(=O)NCC(=O)N[C@@H](Cc3ccccc3)C(=O)N[C@@H](Cc3ccccc3)C(=O)N3C(C(=O)NCC(=O)N[C@@H](CCCCN)C(=O)N[C@@H](Cc4ccccc4)C(=O)N[C@@H](CCCCN)C(=O)N[C@@H](CCCCN)C(=O)N[C@@H](CCCCN)C(=O)N[C@@H](CCCCN)C(N)=O)CC4CCCCC43)CC3CCCCC32)CC2CCCCC21 (stereo partly shown) [FKAB-1Gh, Ac-GF-F-Oic-GK-F-Oic-GF-F-Oic-GK-F-KKKK-CONH2] (Ac-GFF[ξOic]GKF[ξOic]GFF[ξOic]GKFKKKK-NH2)",0,1.00,27.30,8.9,10.00,10,92,10.00,10,103,60,10,36,71,112,,,,,,
"CCNC(=O)[C@H]1O[C@@H](n2cnc3c(N)nc(NCCc4ccc(CCC(=O)O)cc4)nc32)[C@H](O)[C@@H]1O [CGS-21680, 2-p-[2-carboxyethyl]phenethyl-amino-5′-N-ethylcarboxamide-adenosine, reference compound]",,,,,,,,,,,,,,,,,,,,,CT50 (wound half-closure time) (mouse cutaneous injury): 5.4 days; wound closure Day 3 (mouse cutaneous injury): 41.1%; wound closure Day 5 (mouse cutaneous injury): 54.6%; wound closure Day 7 (mouse cutaneous injury): 70.6%; wound closure Day 9 (mouse cutaneous injury): 77.6%; wound closure Day 11 (mouse cutaneous injury): 84.3%
"CC(=O)CC(c1ccccc1)c1c(O)c2ccccc2oc1=O (stereo not shown) [Warfarin, warfarin, reference compound]",84,,,,,,,,,104,94,,86,111,110,113,109,81,93,97,"remaining at 0.5 h, 1 μM (in vitro [4]): 97%; remaining at 1 h, 1 μM (in vitro [4]): 97%; remaining at 0.25 h, 1 μM (in vitro [6]): 109%; % remaining at time T, Human Liver ([10]; first human column (T = 15 min, head not given), 1 μM, 0.5 mg/mL microsomes): 100%"
"CC(=O)NCC(=O)N[C@@H](Cc1ccccc1)C(=O)N1Cc2ccccc2C[C@H]1C(=O)N1[C@H](C(=O)NCC(=O)N[C@@H](CCCCN)C(=O)N2Cc3ccccc3C[C@H]2C(=O)N2[C@H](C(=O)NCC(=O)N[C@@H](Cc3ccccc3)C(=O)N3Cc4ccccc4C[C@H]3C(=O)N3[C@H](C(=O)NCC(=O)N[C@@H](CCCCN)C(=O)N4Cc5ccccc5C[C@H]4C(=O)N[C@@H](CCCCN)C(=O)N[C@@H](CCCCN)C(=O)N[C@@H](CCCCN)C(=O)N[C@@H](CCCCN)C(=O)NCCN)C[C@@H]4CCCC[C@@H]43)C[C@@H]3CCCC[C@@H]32)C[C@@H]2CCCC[C@@H]21 [FKAB-1H, Ac-GF-Tic-Oic-GK-Tic-Oic-GF-Tic-Oic-GK-Tic-KKKK-CONH—CH2—CH2—NH2] (Ac-GF[Tic][Oic]GK[Tic][Oic]GF[Tic][Oic]GK[Tic]KKKK-Ethylenediamine)",,1.00,,,3.00,3,34,10.00,10,,,10,0,62,73,0,0,0,,,p(MIC) Bacillus Subtillis ([2]; -log(MIC)): 6.00; p(MIC) Staphylococcus aureus ME/GM/TC resistant ([3]; -log(MIC)): 5.52; Actual Bioactivity ([3]; p(MIC) used in Staphylococcus aureus QSAR model): 5.520; Actual Bioactivity [5]: 5.000; p(MIC) Salmonella typhimurium ([7]; -log(MIC)): 5.00
"CC(C)NCC(O)COc1cccc2ccccc12 (stereo not shown) [Propranolol, propranolol, reference compound]",0.1,,,,,,97,,,51,24,,9,9,4,34,9,0.5,0.1,0.1,"remaining at 0.5 h, 1 μM (in vitro [4]): 86%; remaining at 1 h, 1 μM (in vitro [4]): 72%; remaining at 0.25 h, 1 μM (in vitro [6]): 76%"
"C[C@]12CC[C@H]3[C@@H](CCC4=CC(=O)CC[C@@]43C)[C@@H]1CC[C@@H]2O [Testosterone, testosterone, reference compound]",,,,,,,,,,,,,,,,,,,,,"remaining at 0.25 h, 1 μM [11]: 85%; remaining at 0.5 h, 1 μM [11]: 62%; remaining at 1 h, 1 μM [11]: 33%; remaining at 0.25 h, 1 μM [12]: 0%; remaining at 0.5 h, 1 μM [12]: 0%; remaining at 0.25 h, 1 μM [13]: 3%; remaining at 0.5 h, 1 μM [13]: 0%; remaining at 0.25 h, 1 μM ([10]; human, microsomes, pH 7.4): 77%; remaining at 0.5 h, 1 μM ([10]; human, microsomes, pH 7.4): 53%; remaining at 1 h, 1 μM ([10]; human, microsomes, pH 7.4): 29%; remaining at 0.25 h, 1 μM [14]: 34%; remaining at 0.5 h, 1 μM [14]: 11%; remaining at 1 h, 1 μM [14]: 1%"
"CC(=O)NCC(=O)N[C@@H](Cc1ccccc1)C(=O)N1Cc2ccccc2CC1C(=O)N1C(C(=O)NCC(=O)N[C@@H](CCCCN)C(=O)N2Cc3ccccc3CC2C(=O)N2C(C(=O)NCC(=O)N[C@@H](Cc3ccccc3)C(=O)N3Cc4ccccc4CC3C(=O)N3C(C(=O)NCC(=O)N[C@@H](CCCCN)C(=O)N4Cc5ccccc5CC4C(=O)N[C@@H](CCCCN)C(=O)N[C@@H](CCCCN)C(=O)N[C@@H](CCCCN)C(=O)N[C@@H](CCCCN)C(=O)N[C@@H](CCCCN)C(N)=O)CC4CCCCC43)CC3CCCCC32)CC2CCCCC21 (stereo partly drawn) [FKAB-1Gi, Ac-GF-Tic-Oic-GK-Tic-Oic-GF-Tic-Oic-GK-Tic-KKKKK-CONH2] (Ac-GF[ξTic][ξOic]GK[ξTic][ξOic]GF[ξTic][ξOic]GK[ξTic]KKKKK-NH2)",87,1.00,24.9,18.9,3.00,3,86,3.00,3,63,79,10,77,26,15,72,75,99,76,86,
"CC(=O)N[C@@H](Cc1ccccc1)C(=O)N1Cc2ccccc2CC1C(=O)N1C(C(=O)N[C@@H](CCCCN)C(=O)N2Cc3ccccc3CC2C(=O)N2C(C(=O)N[C@@H](Cc3ccccc3)C(=O)N3Cc4ccccc4CC3C(=O)N3C(C(=O)N[C@@H](CCCCN)C(=O)N4Cc5ccccc5CC4C(=O)N[C@@H](CCCCN)C(=O)N[C@@H](CCCCN)C(=O)N[C@@H](CCCCN)C(=O)N[C@@H](CCCCN)C(N)=O)CC4CCCCC43)CC3CCCCC32)CC2CCCCC21 (stereo partly drawn) [FKAB-1Gc, Ac-F-Tic-Oic-K-Tic-Oic-F-Tic-Oic-K-Tic-KKKK-CONH2] (Ac-F[ξTic][ξOic]K[ξTic][ξOic]F[ξTic][ξOic]K[ξTic]KKKK-NH2)",107,1.00,86.8,50,3.00,3,,30.00,30,14,46,10,86,10,7,17,24,75,73,80,
